Results as given in PubChem BioAssay (NCI).
Where “and” joins values, the source holds several entries; their conditions need not be identical. Equal entries are not always repeated.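 Protocol summary: plate cells (96-well), add compound at 5 concentrations, incubate 48 h, interpolate endpoints linearly. The concentration for 50% growth inhibition is given as GI50. At the TGI there is no net growth.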

Legend:
Test in all cases: inhibition of tumour cell growth, NCI panel, 48 h
HOP-18 NSCLC = tested on: HOP-18 NSCLC
DMS 273 small cell lung = tested on: DMS 273 small cell lung
XF 498 CNS = tested on: XF 498 CNS
NCI/ADR-RES ovarian = tested on: NCI/ADR-RES ovarian
MDA-N = tested on: MDA-N
BT-549 breast = tested on: BT-549 breast
RXF-631 renal = tested on: RXF-631 renal

Row | Compound | TGI (HOP-18 NSCLC) | TGI (DMS 273 small cell lung) | TGI (NCI/ADR-RES ovarian) | TGI (BT-549 breast) | GI50 (NCI/ADR-RES ovarian) | GI50 (BT-549 breast) | further results
1 | C=CCNC(=S)OCCCCCCCCCC | 51.8 µM | 37.3 µM |  |  |  |  | TGI (XF 498 CNS): 29.7 µM
2 | O=C1C=C(Nc2nc(C(=O)O)cc(=O)[nH]2)c2ccccc2C1=O |  |  | > 100 µM | > 100 µM |  |  | TGI (MDA-N): > 100 µM
3 | O=C1c2ccccc2C2(O)Oc3cccc(O)c3C12O (configuration not stated) | > 100 µM | > 100 µM |  |  |  |  | TGI (RXF-631 renal): > 100 µM
4 | CCCCc1nc2cc(/C=C/C(=O)NO)ccc2n1CCN(CC)CC |  |  | 4.03 µM | 38.2 µM | 0.239 µM | 1.98 µM | 
5 | COC(=O)[C@H](Cc1ccccc1)NC(=O)[C@@H](OC)[C@@H]1Cc2cc3cc(OC4CC(OC5CC(O)C(O)C(C)O5)C(O)C(C)O4)c(C)c(O)c3c(O)c2C(=O)[C@H]1OC1CC(OC2CC(OC3CC(C)(O)C(O)C(C)O3)C(O)C(C)O2)C(O)C(C)O1 (some centres not stated) |  |  | > 14.3 µM | 0.0574 µM | 4.22 µM | 0.00713 µM | 
6 | CC(C)(C)c1nnc2n(c1=O)N=CC(c1ccc(Br)cc1)S2 (configuration not stated) |  |  | 61.6 µM | 74.7 µM | 26.4 µM | 24.3 µM | 
7 | Cc1ccc([Se][Se]c2ccc(C)cc2)cc1 | 33.5 µM | 32.4 µM |  |  |  |  | TGI (RXF-631 renal): 77.9 µM; TGI (XF 498 CNS): 40.8 µM
8 | COC(=O)C(=O)C(C#N)c1ccc(Cl)c(Cl)c1 (configuration not stated) |  | > 100 µM |  |  |  |  | TGI (RXF-631 renal): > 100 µM; TGI (XF 498 CNS): > 100 µM
9 | COC(=O)c1ccccc1N=Cc1ccc(N(CCC#N)S(=O)(=O)c2ccccc2)cc1 | > 100 µM | > 100 µM |  |  |  |  | TGI (RXF-631 renal): > 100 µM; TGI (XF 498 CNS): > 100 µM
10 | CC(C)(C)n1cc(-c2ccnc(NCCNS(=O)(=O)c3cccc4ccccc34)c2)c(-c2cccc(F)c2)n1 |  |  | > 100 µM | 26.7 µM | 21.4 µM | 10.6 µM | 
11 | Cc1[nH]nc(C(=O)Nc2n[nH]c3ccccc23)c1[N+](=O)[O-] |  |  | > 100 µM | > 100 µM | > 100 µM | 26.5 µM | 
12 | O=C1NC(=S)NC(=O)C1=Cc1ccc2ccccc2n1 | > 100 µM | > 100 µM |  |  |  |  | 
13 | O=[N+]([O-])c1ccc2c(c1)S(=O)c1ccccc1-2 (configuration not stated) |  |  | > 100 µM | > 100 µM |  |  | TGI (MDA-N): > 100 µM
14 | C=C1CO[C@@H]2C[C@@H]1CCC1(C)OC1CC/C(C)=C/CC[C@@]2(C)O (some centres not stated) |  |  | > 67.4 µM | 61.5 µM | 32.3 µM | 26.4 µM | 
15 | CC(C)[C@@H](CS(=O)(=O)C(C)C)N1C(=O)[C@@](C)(CC(=O)O)C[C@H](c2cccc(Cl)c2)[C@H]1c1ccc(Cl)cc1 |  |  | > 100 µM | 40.3 µM | 24.7 µM | 12.9 µM | 
16 | COc1cccc2c1C(=O)c1c(O)c3c(c(O)c1C2=O)C[C@@](O)(/C(C)=N\O)C[C@@H]3OC1CC(N)C(O)C(C)O1 (some centres not stated) | 7.26 µM | 4.52 µM |  | 5.65 µM |  |  | TGI (MDA-N): 5.83 µM; TGI (RXF-631 renal): 45.5 µM; TGI (XF 498 CNS): 0.951 µM
17 | CC(C)c1ccc(O)c(=O)cc1 | > 56.1 µM | > 46.3 µM | 59.3 µM |  | 3.64 µM |  | GI50 (MDA-N): 22.7 µM; TGI (XF 498 CNS): > 100 µM
18 | CCOC(=O)c1cnc2c(cnn2CC)c1NN=C(C)C |  |  | > 100 µM | > 100 µM | 38 µM | 46.5 µM | 
19 | COc1cc(C(CC(OC)OC)=C(C#N)C#N)cc(OC)c1OC |  | 27.6 µM |  |  |  |  | 
20 | CN1c2ccccc2C(C)(C)C12CC(c1ccc(Cl)c(S(=O)(=O)N3CCCC3)c1)=NO2 (configuration not stated) |  |  | > 100 µM | > 100 µM | > 100 µM | > 100 µM | 

Row | Compound | TGI (HOP-18 NSCLC) | TGI (DMS 273 small cell lung) | TGI (NCI/ADR-RES ovarian) | TGI (BT-549 breast) | GI50 (NCI/ADR-RES ovarian) | GI50 (BT-549 breast) | further results
21 | OC(C(=Nc1ccccc1)c1ccccc1)c1ccccc1 (configuration not stated) |  |  | 65.7 µM | 9.51 µM |  |  | 
22 | CCOC(=O)CN(Cc1ccccc1)Cc1c(C(=O)c2ccccc2)c2ccccc2n1C(=O)c1ccccc1 |  | > 100 µM |  |  |  |  | TGI (XF 498 CNS): > 100 µM
23 | C=C(C(=O)OC)[C@@H]1C[C@@H](O)[C@]2(C)CC/C=C(\C)CCC[C@H](C)[C@H](O)C1O2 |  |  | > 100 µM | 79.1 µM | 83.7 µM | 29.5 µM | 
24 | COc1ccc2c(c1)C(=O)c1c-2n(CCCCl)c(=O)c2cc(N(C)C)ccc12 |  |  | > 100 µM | > 100 µM | > 100 µM | 26 µM | 
25 | Oc1ccccc1C=Nc1ccccc1N=Cc1ccccc1O |  | > 100 µM |  |  |  |  | TGI (XF 498 CNS): > 100 µM
26 | CC(C)(CCC(C)(C)c1ccccc1)c1ccccc1 |  |  | 36.9 µM | 37.2 µM |  |  | TGI (MDA-N): 56.8 µM
27 | Cc1cccc(N2C(=O)C(=O)C(c3nc4ccccc4s3)C(=O)C2=O)c1C | > 100 µM | > 100 µM |  |  |  |  | TGI (RXF-631 renal): > 100 µM
28 | Cc1nn(C)c(=S)n(C)c1=O | 4.89 µM | 11 µM |  |  |  |  | TGI (XF 498 CNS): 5.31 µM
29 | Cc1nn(C)c(=O)c2nn(-c3ccccc3)c(C)c12 | > 100 µM | > 100 µM |  |  |  |  | 
30 | O=C1CCC2CCOc3ccc(O)c1c32 (configuration not stated) |  | > 100 µM |  |  |  |  | TGI (RXF-631 renal): > 100 µM
31 | O=C(O/N=C1/CCCC/C1=C\c1ccccc1)c1ccc(Cl)cc1 | > 100 µM | > 100 µM |  |  |  |  | TGI (XF 498 CNS): 48.1 µM
32 | c1ccc2c(c1)ccc1c3ccccc3ccc21 |  |  | > 50 µM | > 50 µM | > 50 µM | > 50 µM | 
33 | CC1(C)CC[C@]2(C(=O)O)CC[C@]3(C)[C@H](CC[C@@H]4[C@@]5(C)CCC(=O)C(C)(C)[C@@H]5CC[C@]43C)[C@H]2[C@H]1OC(=O)C(F)(F)F |  |  | 26.2 µM | 22.3 µM | 12.3 µM | 9.3 µM | 
34 | CN1CCN(c2cc(Nc3cc(C4CC4)[nH]n3)nc(Nc3ccc(CC(=O)NCc4cccc(F)c4)cc3)n2)CC1 |  |  | > 100 µM | 19.9 µM | 18.8 µM | 2.96 µM | 
35 | O=C(/C=C/c1ccc(Cl)cc1)c1ccncc1 | > 100 µM | > 100 µM |  |  |  |  | TGI (RXF-631 renal): > 100 µM
36 | COc1cc2c3c(n(CCCNCCN4CCOCC4)c(=O)c2cc1OC)-c1cc2c(cc1C3=O)OCO2 |  |  | 0.69 µM | 16.6 µM and 29.5 µM | 0.11 µM | 7.64 µM and 7.01 µM | 
37 | COc1ccc(Nc2c[nH]c(=O)[nH]c2=O)cc1 |  |  | > 100 µM |  |  |  | TGI (MDA-N): > 100 µM
38 | Cc1ccccc1NC(=O)c1sc2nc3c(cc2c1N)C(=O)CCC3 |  |  | > 100 µM | > 100 µM | 2.23 µM | 6.58 µM | 
39 | Oc1ccc(SCc2ccc(NCc3ccccc3)cc2)cc1 |  |  | > 100 µM | > 100 µM |  |  | TGI (MDA-N): 57.4 µM
